Series [1] addresses DA receptor. Kind of series: Radioligand binding assay: displacement of ^3 H-5,6-dihydroxy-N,N-dipropyl-2-aminotetralin (DA receptor agonist) from homogenates of rat corpus striatum. To be noted: for IC50: mean of 3 independent experiments each in triplicate, 10^-11 to 10^-5 M, read-out: IC50 (concentration of drug required to inhibit the specific binding by 50%). The procedure: The ability of the above compounds to displace the specific binding of ^3 H-5,6-dihydroxy-N,N-dipropyl-2-aminotetralin, a potent DA receptor agonist (Feenstra et al., Life Sci., 32, 1313 (1983)) to homogenates of rat corpus striatum was studied.
The assay was performed essentially according to the method of Leysen and Gommeran J. Neurochem. 36, 201 (1981) for ^3 H-apomorphine binding.
The IC50 is the concentration of drug required to inhibit the specific binding by 50%. The results are presented as the mean values of 3 independent experiments each analyzed in triplicate over the concentration range 10^-11 to 10^-5 M.

The test system of series [2] is homovanillic acid, HVA (corpus striatum). Nature of the series: Effect on dopamine metabolism: lowering of striatal HVA levels. It is filed as in vivo, Female Wistar rats. Particulars: for HVA % control / HVA content of corpus striatum: injected, 60 min, mean ± S.E.M. As for the experimental part: Dopamine agonists are known to produce a lowering of the striatal levels of one of the main metabolites of dopamine, homovanillic acid, HVA, (Feenstra et al., 1983 Arch. Pharmacol., 324, 108).
Female Wistar rats (160-180g) were injected with the drugs under test dissolved in saline and were then decapitated 60 min later. The HVA content of the corpus striatum was determined according to the method of Westerink and Mulder (J. Neurochem., 1981 36, 1449).

Series [3] concerns presynaptic dopamine receptors. Kind of series: Presynaptic DA activity in the GBL model: counteracting GBL-induced rise in striatal DOPA levels. It is filed as in vivo, rat. Particulars: for % Reversal vs. GBL group / DOPA (striatal level): 0.2 μmol/kg; for % Reversal vs. GBL group: GBL + NSD 1015 group = 0, NSD 1015 group = 100; for DOPA (striatal level): GBL model, NSD 1015 as decarboxylase inhibitor. As for the experimental part: The ability of a dopamine agonist to counteract the gamma-butyrolactone (GBL) induced rise in DOPA levels in the rat striatum is an indication of its activity at presynaptic dopamine receptors. (Walters and Roth, 1976 Arch. Pharmacol., 296, 5).
The experiments were performed in rats according to the method of Walters and Roth (ibid). The striatal levels of DOPA were determined using the method of Westerink and Mulder (1981 J. Neurochem. 36, 1449). NSD 1015 was used as decarboxylase inhibitor.

Series [4] relates to dopamine receptor. Kind of series: Dopamine receptor agonist activity, overall conclusion from various tests. To be noted: pre- and post-synaptic dopaminergic tests. The procedure:
The dopaminergic activity of three analogues (A,B,C) was evaluated in comparison with the indolic structural analogue RU 29717 (Nedelec et al., 1983, J. Med. Chem., 26, 522) in three test systems. Compounds B and C are within the scope of the present invention.

For series [5], the system named is dopaminergic. Particulars: literature background; cited from earlier work.
Series [6] relates to adrenergic and serotonergic. To be noted: literature background; cited from earlier work.
For series [7] the following is noted: literature background; cited from earlier work.

Each structure is given as a SMILES string. Entries after “also recorded” stand apart in the source; their conditions may differ.

Here are results for five compounds from US4540691A, “Dopamine agonists and use thereof” (Nelson Research & Development Co., priority 1984, dated 1985).

Take `CN1CCc2cccc3c2[C@H]1Cc1ccc(O)c(O)c1-3` [Apomorphine, reference compound]: the IC50 in series [1] was 3.2 nM.

For `CCCN1CCOC2c3ccccc3CCC21` (centres unmarked) [Compound A], in series [1], the “potency in binding assay (conclusion in words)” value is on record as “the least potent” and the IC50 came to 110 nM. For the same compound, in series [2] (0.4 μmol/kg), the HVA % control is reported as 91.8 ± 2.0 % control and the “HVA content of corpus striatum” value amounted to 0.90 ± 0.02 µg/g. Besides, in series [3], the “% Reversal vs. GBL group” value is 4.5% and the “DOPA (striatal level)” value is 5.25 ± 0.09 µg/g. In addition, the “dopamine agonist activity (general conclusion in words)” value (“dopamine agonist activity” below) in series [4] is on record as “significantly less active”.

As to `CCCN1CCOC2c3cccc(O)c3CCC21` (centres unmarked) [Compound B], in series [1], the “potency in binding assay (conclusion in words)” value is “some activity” and the IC50 came out at 80 nM. Also, in series [2] (0.4 μmol/kg), the HVA % control stood at 98.0 ± 12.2 % control and the “HVA content of corpus striatum” value came out at 0.96 ± 0.12 µg/g. In series [3], the “% Reversal vs. GBL group” value amounted to 17.3% and the “DOPA (striatal level)” value came out at 4.80 ± 0.37 µg/g. Further, the “dopamine agonist activity” value in series [4] is recorded as “useful levels of dopamine agonist activity”.

Take `CCCN1CCOC2c3cc(O)ccc3CCC21` (centres unmarked) [Compound C]: the IC50 in series [1] is 2.8 nM. For the same compound, in series [2] (0.2 μmol/kg), the HVA % control stood at 63.3 ± 4.1 % control and the “HVA content of corpus striatum” value was 0.62 ± 0.04 µg/g. For the same compound, in series [2] (0.4 μmol/kg), the HVA % control was found to be 48.0 ± 1.0 % control and the “HVA content of corpus striatum” value stood at 0.47 ± 0.01 µg/g. Besides, the “activity on HVA levels (conclusion in words)” value in series [2] (conclusion) was “comparable in activity to RU 29717”. In series [3], the “% Reversal vs. GBL group” value turned out to be 94.6% and the “DOPA (striatal level)” value turned out to be 2.08 ± 0.12 µg/g. In addition, the “potency in GBL model (conclusion in words)” value in series [3] (conclusion) is “slightly more potent than RU 29717”. For the same compound, in series [4], the “dopamine agonist activity” value is reported as “useful levels of dopamine agonist activity; also recorded: as active as the known DA agonist RU 29717”.

In the case of `CCCN1CCO[C@@H]2c3cccc4[nH]cc(c34)C[C@H]21` [RU 29717, N-PROPYL-9-OXAERGOLINE, reference compound], the IC50 in series [1] worked out at 3 nM. In addition, in series [2] (0.2 μmol/kg), the HVA % control is reported as 51.0 ± 4.1 % control and the “HVA content of corpus striatum” value was found to be 0.50 ± 0.04 µg/g. Moreover, in series [2] (0.4 μmol/kg), the HVA % control amounted to 46.9 ± 2.0 % control and the “HVA content of corpus striatum” value was determined as 0.46 ± 0.02 µg/g. Moreover, in series [3], the “% Reversal vs. GBL group” value was 88.4% and the “DOPA (striatal level)” value was found to be 2.30 ± 0.16 µg/g. The “dopaminergic agonist activity (in words)” value in series [5] is given as “extremely potent direct acting dopaminergic agonist, comparing favorably with pergolide”. In addition, in series [6], the “adrenergic and serotonergic activity (in words)” value is “has adrenergic and serotonergic activity”. Further, in series [7], the “emetic activity (in words)” value is “Its activity as an emetic is a significant problem”.
